Test: recombinant barcode read abundance after kanamycin selection (control-corrected) (log10(CPM+1)); higher = more efficient recombination; sequences stand for … in AGTGCAGAGAAAATCGGCCAGTTTTCTCTGCCTGCAGTCCGCATGCCGT…AGATTTATGCAGCGGACTGCCTTTCTCCCAAAGTGATAAACCGGACAGTATCATGGACCGGTTTTCCCGGTAATCCGTATTTGCAAGGTTGGTTTCACT; site = the 11-nt target
Procedure, shortened: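 Targets and IS621 bridge RNA target-binding loops were paired in oligos, each with a promoter, a barcode and the J23119-driven first 104 bridge RNA bases. A vector carrying the remaining 73 bp and a T7-inducible recombinase received these by Gibson cloning, and the pool was co-electroporated into E. coli with a donor plasmid. Duplicate plates contained chloramphenicol/ampicillin LB agar (control) or chloramphenicol/ampicillin/kanamycin with 0.1 mM IPTG. Recombination efficiency comes from averaged, control-corrected counts per million of recombinant-junction barcodes, reported as log10(CPM+1).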
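Further: IS621 recombinase and bridge RNA in Escherichia coli cells.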

Row | Sequence | recombinant barcode read abundance (log10)
1 | TAGTACCCTTGGGTTCTAACCTGTTGCAC (site TAGTACCCTGT) | 1.28
2 | TAGTACCCTTGGGTTCTAACCTGTTGCAC (site TAGTACCCTTT) | 0.0304
3 | TAGTACCCTTGGGTTCTAACCTGTTGCAG (site TAGTACCCTAT) | 0.0395
4 | TAGTACCCTTGGGTTCTAACCTGTTGCAG (site TAGTACCCTCT) | 1.23
5 | TAGTACCCTTGGGTTCTAACCTGTTGCAG (site TAGTACCCTGT) | 0.152
6 | TAGTACCCTTGGGTTCTAACCTGTTGCAG (site TAGTACCCTTT) | 0.0625
7 | TAGTACCCTTGGGTTCTAACCTGTTGCTG (site TAGTAACCTAA) | 0.434
8 | TAGTACCCTTGGGTTCTAACCTGTTGCTG (site TAGTACCCTCA) | 1.92
9 | TAGTAGTCTTGGGTTCTAACCTGTTGCGT (site TAGTAGTCTAA) | 0.509
10 | TAGTAGTCTTGGGTTCTAACCTGTTGCGT (site TAGTAGTCTAC) | 2.79
11 | TAGTAGTCTTGGGTTCTAACCTGTTGCGT (site TAGTAGTCTAG) | 0.729
12 | TAGTAGTCTTGGGTTCTAACCTGTTGCGT (site TAGTAGTCTAT) | 2.34
13 | TAGTCATCTTGGGTTCTAACCTGTTGCTC (site TAGACATCTGA) | 0.0065
14 | TAGTCATCTTGGGTTCTAACCTGTTGCTC (site TAGCCATCTGA) | 0.252
15 | TAGTCATCTTGGGTTCTAACCTGTTGCTC (site TAGGCATCTGA) | 0.243
16 | TAGTCATCTTGGGTTCTAACCTGTTGCTC (site TAGTCATCTGA) | 1.41
17 | TAGTCCACTTGGGTTCTAACCTGTTGCGC (site CTCAAAGCTCG) | 0.0907
18 | TAGTCCACTTGGGTTCTAACCTGTTGCGC (site TAGTCCACTGC) | 1.98
19 | TAGTCCGCTTGGGTTCTAACCTGTTGCGG (site GAGTTCGCTCC) | 0.00991
20 | TAGTCCGCTTGGGTTCTAACCTGTTGCGG (site TAGTCCGCTCC) | 0.0626
21 | TAGTCCTCTTGGGTTCTAACCTGTTGCTT (site TAGTCCTCTAA) | 1.22
22 | TAGTCCTCTTGGGTTCTAACCTGTTGCTT (site TAGTCCTCTCA) | 0.173
23 | TAGTCCTCTTGGGTTCTAACCTGTTGCTT (site TAGTCCTCTGA) | 0.13
24 | TAGTCCTCTTGGGTTCTAACCTGTTGCTT (site TAGTCCTCTTA) | 0.0542
25 | TAGTCGACTTGGGTTCTAACCTGTTGCTT (site TAGACGACTAA) | 0.652
26 | TAGTCGACTTGGGTTCTAACCTGTTGCTT (site TAGCCGACTAA) | 0.307

Row | Sequence | recombinant barcode read abundance (log10)
27 | TAGTCGACTTGGGTTCTAACCTGTTGCTT (site TAGGCGACTAA) | 0.0688
28 | TAGTCGACTTGGGTTCTAACCTGTTGCTT (site TAGTCGACTAA) | 0.103
29 | TAGTCGTCTTGGGTTCTAACCTGTTGCCT (site TAGTCGTCTAA) | 0.238
30 | TAGTCGTCTTGGGTTCTAACCTGTTGCCT (site TAGTCGTCTAG) | 1.3
31 | TAGTCGTCTTGGGTTCTAACCTGTTGCTA (site TAGTCGTCTTA) | 0.505
32 | TAGTCGTCTTGGGTTCTAACCTGTTGCTA (site TATTTGTCTTA) | 0.438
33 | TAGTCTCCTTGGGTTCTAACCTGTTGCGT (site TAGTATCCTAC) | 0.227
34 | TAGTCTCCTTGGGTTCTAACCTGTTGCGT (site TAGTCTCCTAC) | 0.314
35 | TAGTCTCCTTGGGTTCTAACCTGTTGCGT (site TAGTGTCCTAC) | 0.0837
36 | TAGTCTCCTTGGGTTCTAACCTGTTGCGT (site TAGTTTCCTAC) | 0.135
37 | TAGTGAGCTTGGGTTCTAACCTGTTGCCG (site GCCCATCCTTA) | 0.065
38 | TAGTGAGCTTGGGTTCTAACCTGTTGCCG (site TAGTGAGCTCG) | 1.44
39 | TAGTGAGCTTGGGTTCTAACCTGTTGCCT (site TAGTGAGCTAG) | 1.37
40 | TAGTGAGCTTGGGTTCTAACCTGTTGCCT (site TCGTGAGCTAG) | 0.134
41 | TAGTGCTCTTGGGTTCTAACCTGTTGCCC (site TAGTGCTCTAG) | 0.675
42 | TAGTGCTCTTGGGTTCTAACCTGTTGCCC (site TAGTGCTCTCG) | 0.576
43 | TAGTGCTCTTGGGTTCTAACCTGTTGCCC (site TAGTGCTCTGG) | 1.37
44 | TAGTGCTCTTGGGTTCTAACCTGTTGCCC (site TAGTGCTCTTG) | 0.116
45 | TAGTGTCCTTGGGTTCTAACCTGTTGCCT (site TAGTGTACTAG) | 0.126
46 | TAGTGTCCTTGGGTTCTAACCTGTTGCCT (site TAGTGTCCTAG) | 1.11
47 | TAGTGTCCTTGGGTTCTAACCTGTTGCCT (site TAGTGTGCTAG) | 0.521
48 | TAGTGTCCTTGGGTTCTAACCTGTTGCCT (site TAGTGTTCTAG) | 0.405
49 | TAGTGTCCTTGGGTTCTAACCTGTTGCGT (site TAGTATCCTAC) | 0.309
50 | TAGTGTCCTTGGGTTCTAACCTGTTGCGT (site TAGTCTCCTAC) | 0.104
51 | TAGTGTCCTTGGGTTCTAACCTGTTGCGT (site TAGTGTCCTAC) | 1.86
52 | TAGTGTCCTTGGGTTCTAACCTGTTGCGT (site TAGTTTCCTAC) | 0.0286

Row | Sequence | recombinant barcode read abundance (log10)
53 | TAGTGTGCTTGGGTTCTAACCTGTTGCCT (site TAGTGTACTAG) | 0.514
54 | TAGTGTGCTTGGGTTCTAACCTGTTGCCT (site TAGTGTCCTAG) | 0.137
55 | TAGTGTGCTTGGGTTCTAACCTGTTGCCT (site TAGTGTGCTAG) | 1.06
56 | TAGTGTGCTTGGGTTCTAACCTGTTGCCT (site TAGTGTTCTAG) | 0.0139
57 | TAGTGTTCTTGGGTTCTAACCTGTTGCCT (site TAGTGTACTAG) | 0.104
58 | TAGTGTTCTTGGGTTCTAACCTGTTGCCT (site TAGTGTCCTAG) | 0.181
59 | TAGTGTTCTTGGGTTCTAACCTGTTGCCT (site TAGTGTGCTAG) | 0.106
60 | TAGTGTTCTTGGGTTCTAACCTGTTGCCT (site TAGTGTTCTAG) | 0.57
61 | TAGTTAGCTTGGGTTCTAACCTGTTGCCT (site TAGTTAGCTAG) | 0.756
62 | TAGTTAGCTTGGGTTCTAACCTGTTGCCT (site TAGTTAGCTCG) | 0.217
63 | TAGTTAGCTTGGGTTCTAACCTGTTGCCT (site TAGTTAGCTGG) | 0.251
64 | TAGTTAGCTTGGGTTCTAACCTGTTGCCT (site TAGTTAGCTTG) | 0.11
65 | TAGTTCACTTGGGTTCTAACCTGTTGCCA (site TAGTTAACTTG) | 0.273
66 | TAGTTCACTTGGGTTCTAACCTGTTGCCA (site TAGTTCACTTG) | 0.0767
67 | TAGTTCACTTGGGTTCTAACCTGTTGCCA (site TAGTTGACTTG) | 0.0545
68 | TAGTTCACTTGGGTTCTAACCTGTTGCCA (site TAGTTTACTTG) | 0.0834
69 | TAGTTGTCTTGGGTTCTAACCTGTTGCTT (site CGACGCACTCC) | 0.301
70 | TAGTTGTCTTGGGTTCTAACCTGTTGCTT (site TAGTTGTCTAA) | 0.569
71 | TAGTTTACTTGGGTTCTAACCTGTTGCTA (site GGTCAGTCTCC) | 0.0822
72 | TAGTTTACTTGGGTTCTAACCTGTTGCTA (site TAGTTTACTTA) | 0.0536
73 | TAGTTTGCTTGGGTTCTAACCTGTTGCCG (site ACCGACCCTAT) | 0.00726
74 | TAGTTTGCTTGGGTTCTAACCTGTTGCCG (site TAGTTTGCTCG) | 0.743
75 | TATAAGTCTTGGGTTCTAACCTGTTGCCT (site CGTAAGTCTAG) | 0.0475
76 | TATAAGTCTTGGGTTCTAACCTGTTGCCT (site TATAAGTCTAG) | 0.0571
77 | TATAATACTTGGGTTCTAACCTGTTGCGG (site TAGAATACTCC) | 0.156

Source: the supplement of paper PMC11208160
